Laboratory results reported in PMC11904993, “Humanized Candida and NanoBiT Assays Expedite Discovery of Bdf1 Bromodomain Inhibitors With Antifungal Potential” (Advanced Science, 2025).
Several values for one entry are separate records, joined by “and”; a condition that tells them apart may be missing. Equal values may be shown once. *1 amine or outer side, *2 acyl side, *3 side chain or, on linkers, in order; H or OH if unused. Where a SMILES comes first, the peptide text is derived from it. Bridges are numbered along the chain shown (N, C = ends). [ ]: non-standard residue; d: D form. The star is where a group is joined. pTerphenylCO(4''-OnC5H11) = CCCCCOc1ccc(-c2ccc(-c3ccc(C(=O)*)cc3)cc2)cc1; Orn(4R-OH,5R-OH) = O=C([C@H](C[C@@H](O)[C@@H](O)N[*:3])N[*:1])[*:2]; hTyr(3S-OH,4S-OH) = N[C@H](C(=O)O)[C@H](O)[C@@H](O)c1ccc(O)cc1; Pro(3S-OH,4S-Me) = C[C@H]1CN[C@H](C(=O)O)[C@H]1O; Hyp = O=C(O)[C@@H]1C[C@@H](O)CN1

Key:
[1] = tested on: C. glabrata strains (WT, pdr1∆ or PDR1 rescue); assay: Growth assays to assess compound efflux; format: cell-based; conditions: for growth relative to Solvent = 100 (Figure S10B): compound 50 µM, three replicates
Experimental: Cells from a single colony were diluted in 0.85% NaCl before being counted using a Neubauer chamber. […] The effect of fluconazole was tested by titration on these strains under similar conditions.

[2] = tested on: C. glabrata strains expressing WT and mutant Bdf1; assay: Growth inhibition in liquid media, C. glabrata lab strains; conditions: Exp 1-3; for %Growth: 50 µM, WT BDF1-flag; for OD at 600 nm: Figure S4B
Experimental: (§2) Growth on Liquid Media with C. glabrata Lab Strains: Cells were grown at 30 °C in SC+M+C‐U medium (SC medium with 5 mM methionine, 0.25 mM cysteine, without uracil) to an OD600 of 0.5–0.8. […] Plates were incubated at 30 °C and OD600 was measured using a Multiskan FC Microplate Photometer (Thermo Fisher).

[3] = tested on: C. glabrata expressing humanized Bdf1 (Brd4 BDs); assay: Growth inhibition in liquid media, humanized C. glabrata strains; conditions: 50 µM, Exp 1-3
Experimental: as §2

CgBdf1 BD2 = CgBdf1 BD2 (Candida glabrata, UniProt Q6FWV7); assay: biochemical; format: binding, C. glabrata; conditions: Fig 1D/2A original data; single experiments Exp1-3
CgBdf1 BD2, sequence (Q6FWV7 entry or part of it): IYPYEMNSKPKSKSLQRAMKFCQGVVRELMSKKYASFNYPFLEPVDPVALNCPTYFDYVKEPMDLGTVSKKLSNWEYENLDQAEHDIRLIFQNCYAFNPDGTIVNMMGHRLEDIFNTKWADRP

CgBdf1 BD1 = CgBdf1 BD1 (Candida glabrata, UniProt Q6FWV7); assay: HTRF assay, inhibition of H4ac4 peptide binding; design: species or system C. glabrata; conditions: Fig 1D/2A original data; single experiments Exp1-3
CgBdf1 BD1, sequence (Q6FWV7 entry or part of it): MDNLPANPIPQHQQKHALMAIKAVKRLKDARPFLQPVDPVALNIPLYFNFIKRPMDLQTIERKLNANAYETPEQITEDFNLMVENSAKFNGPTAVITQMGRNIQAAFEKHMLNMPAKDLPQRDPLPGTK

[4] = tested on: C. albicans expressing humanized Bdf1; assay: Galleria fungal infection model, humanized strain; format: in vivo, Galleria mellonella; design: key to survival event of one larva (1 = death 0 = no death): 1 = death; 0 = no death; conditions: Figure 6C; Bdf1-hBD* strain; Time 8 hours
Experimental: (§1) Galleria mellonella larvae were purchased from Decathlon (La Tronche, France). They were selected in the late larval stages weighing between 300 and 400 mg. Groups of 10 larvae were injected into the right or left last pro‐leg with 10 µl of either PBS, C. albicans suspensions or antifungal drug using an insulin syringe (BDUltra‐Fine 0.3 ml). C. albicans suspensions of the WT and humanized Bdf1 strains were adjusted to 10^6 cells larva^−1. Antifungal drugs (anidulafungin 5 mg kg^−1 or I‐BET726 66 or 44 mg kg^−1) were injected once 30 min before fungal infection. An infected control group received the C. albicans inoculum and the solvent of the drug. A non‐infected control group received only PBS. After inoculation, larvae were placed in Petri dishes and incubated in the dark at 37 °C. The larvae were monitored for 5 days, and survival outcome was determined. For experiments performed at the lower (44 mg kg^−1) dose of IBET‐726, the difference in protection against infection with humanized versus WT C. albicans strains was more evident using the survival data at 40 h rather than at 100 h post‐infection. Larvae were considered dead when no response was observed following touch. All experiments were performed at least 3 times independently. The significance of survival was assessed by a Log‐rank (Mantel‐Cox) test in GraphPad Prism 10.

[5] = biological target: S. cerevisiae histone H2A variant H2A.Z fused to LgBiT (UniProt Q12692); assay: NanoBiT assay in live S. cerevisiae cells; conditions: parent: est. 1.0; read off a plot
[6] = tested on: C. albicans expressing WT Bdf1; assay: Galleria fungal infection model, WT strain; format: in vivo, Galleria mellonella; design: key to survival event of one larva (1 = death 0 = no death): 1 = death; 0 = no death; conditions: Figure 6B
Experimental: as §1

Row | Molecule | growth relative to Solvent = 100 (Figure S10B) ([1]; PDR1 Rescue) | growth relative to Solvent = 100 (Figure S10B) ([1]; WT) | growth relative to Solvent = 100 (Figure S10B) ([1]; pdr1∆) | %Growth ([2]; Fig 3E) | %Growth ([3]; Fig 3E, BDF1-hBD1-flag) | %Growth ([3]; Fig 3E, BDF1-hBD2-flag) | %Growth ([3]; Fig 3E, humanized BDF1-flag) | further results
1 | COc1cc(OC)c2c(=O)[nH]c(-c3cc(C)c(OCCO)c(C)c3)nc2c1 [RVX208] | 70.1855 and 71.3614 and 82.784 | 80.2726 and 64.9447 and 62.8512 | 66.409 and 64.9859 and 67.3918 | 91% and 96% | 95% and 91% and 88% | 94% and 82% and 93% | 80% and 88% and 77% | –
2 | CCNC(=O)c1cc2c(-c3cc(C(C)(C)O)ccc3Oc3c(C)cc(F)cc3C)cn(C)c(=O)c2[nH]1 [ABBV744] | 73.7317 and 83.5862 and 73.3043 | 66.394 and 67.598 and 72.0455 | 59.2642 and 64.761 and 73.9837 | 90% and 89% and 91% | 90% and 85% and 80% | 38% and 32% and 37% | 41% and 39% | –
3 | Cc1sc2c(c1C)C(c1ccc(Cl)cc1)=N[C@@H](CC(=O)OC(C)(C)C)c1nnc(C)n1-2 [JQ1, reference compound] | – | – | – | 113% and 106% and 114% | 83% and 74% and 78% | 91% and 86% | 46% and 40% and 43% | activity against PDR1 deletion strain versus WT/rescue ([1]; 50 µM (I-BET726 1 µM), 20 h): increased efficacy; %Growth ([2]; Fig 3D): 112.7% and 106.1% and 114.4%; OD at 600 nm ([2]; WT BDF1 strain): 0.392 and 0.386 and 0.385; OD at 600 nm ([2]; bdf1-bd1Δ strain): 0.328 and 0.347 and 0.329; OD at 600 nm ([2]; bdf1-bd2Δ strain): 0.195 and 0.225 and 0.183; pIC50 CgBD2 (CgBdf1 BD2): 6.15 and 6.10 and 6.13; pIC50 CgBD1 (CgBdf1 BD1): 5.18 and 5.05 and 5.03; %Growth ([3]; Fig 3D, humanized BDF1-flag): 46.0% and 39.6% and 43.2%
4 | CCCCCOc1ccc(-c2ccc(-c3ccc(C(=O)N[C@H]4C[C@@H](O)[C@@H](O)NC(=O)[C@@H]5[C@@H](O)[C@@H](C)CN5C(=O)[C@H]([C@@H](C)O)NC(=O)[C@H]([C@H](O)[C@@H](O)c5ccc(O)cc5)NC(=O)[C@@H]5C[C@@H](O)CN5C(=O)[C@H]([C@@H](C)O)NC4=O)cc3)cc2)cc1 [anidulafungin] ({pTerphenylCO(4''-OnC5H11)}-[Orn(4R-OH,5R-OH)]T[Hyp][hTyr(3S-OH,4S-OH)]T[Pro(3S-OH,4S-Me)]; lactam 1-C) | – | – | – | – | – | – | – | survival event of one larva (1 = death 0 = no death) [4]: 1
5 | C. glabrata Bdf1-SmBiT expressed in S. cerevisiae Y166F; Y343F | – | – | – | – | – | – | – | ratio to parent [5]: 0.27
6 | CCCCCOc1ccc(-c2ccc(-c3ccc(C(=O)N[C@H]4C[C@@H](O)[C@@H](O)NC(=O)[C@@H]5[C@@H](O)[C@@H](C)CN5C(=O)[C@H]([C@@H](C)O)NC(=O)[C@H]([C@H](O)[C@@H](O)c5ccc(O)cc5)NC(=O)[C@@H]5C[C@@H](O)CN5C(=O)[C@H]([C@@H](C)O)NC4=O)cc3)cc2)cc1 [anidula-fungin] ({pTerphenylCO(4''-OnC5H11)}-[Orn(4R-OH,5R-OH)]T[Hyp][hTyr(3S-OH,4S-OH)]T[Pro(3S-OH,4S-Me)]; lactam 1-C) | – | – | – | – | – | – | – | survival event of one larva (1 = death 0 = no death) ([6]; Time 10 hours): 1; survival event of one larva (1 = death 0 = no death) ([6]; Time 35 hours): 1; survival event of one larva (1 = death 0 = no death) ([6]; Time 50 hours): 1
